Measurements as given in patent publication US9695155B2, “Herbicidal substituted pyrimidinyloxy benzene compounds” (E. I. DU PONT DE NEMOURS AND COMPANY, priority 2013, dated 2017).

Legend:
Experiment in all cases: Test F preemergence
Settings in all cases: 21 days, scale 0 to 100
guineagrass = type: in vivo, Panicum maximum
Description: (§1) Seeds of plant species selected from bermudagrass (Cynodon dactylon), surinam grass (Brachiaria decumbens), large (Lg) crabgrass (Digitaria sanguinalis), crabgrass, naked (naked crabgrass, Digitaria nuda), foxtail, green (green foxtail, Setaria viridis), johnsongrass (Sorghum halepense), kochia (Kochia scoparia), morningglory (pitted morningglory, Ipomoea lacunosa), nutsedge, purple (purple nutsedge, Cyperus rotundus), ragweed (common ragweed, Ambrosia elatior), mustard, black (black mustard, Brassica nigra), guineagrass (Panicum maximum), dallisgrass (Paspalum dilatatum), barnyardgrass (Echinochloa crus-galli), sandbur (southern sandbur, Cenchrus echinatus), sowthistle (common sowthistle, Sonchus oleraceous), Italian ryegrass (Lolium multiflorum), signalgrass (broadleaf signalgrass, Brachiaria platyphylla), dayflower (Virginia (VA) dayflower, Commelina virginica), bluegrass (annual bluegrass, Poa annua), quackgrass (Elytrigia repens), mallow (common mallow, Malva sylvestris), buckwheat, wild (wild buckwheat, Polygonum convolvulus), leafy spurge (Euphorbia esula), chickweed (common chickweed, Stellaria media), wild poinsettia (Euphorbia heterophylla), and pigweed (Amaranthus retroflexus) were planted into a blend of loam soil and sand and treated preemergence with test chemicals formulated in a non-phytotoxic solvent mixture which included a surfactant.
(§2) Treated plants and controls were maintained in a greenhouse for 21 days, after which time all species were compared to controls and visually evaluated. Plant response ratings, summarized in Table F, are based on a scale of 0 to 100 where 0 is no effect and 100 is complete control. A dash (-) response means no test result.

bluegrass = type: in vivo, Poa annua
Description: as §1, §2

johnsongrass = type: in vivo, Sorghum halepense
Description: as §1, §2

foxtail, green = type: in vivo, Setaria viridis
Description: as §1, §2

kochia = type: in vivo, Kochia scoparia
Description: as §1, §2

sowthistle = type: in vivo, Sonchus oleraceous
Description: as §1, §2

barnyardgrass = type: in vivo, Echinochloa crus-galli
Description: as §1, §2

chickweed = type: in vivo, Stellaria media
Description: as §1, §2

dayflower = type: in vivo, Commelina virginica
Description: as §1, §2

Italian ryegrass = type: in vivo, Lolium multiflorum
Description: as §1, §2

mustard, black = type: in vivo, Brassica nigra
Description: as §1, §2

crabgrass, naked = type: in vivo, Digitaria nuda
Description: as §1, §2

leafy spurge = type: in vivo, Euphorbia esula
Description: as §1, §2

buckwheat, wild = type: in vivo, Polygonum convolvulus
Description: as §1, §2

signalgrass = type: in vivo, Brachiaria platyphylla
Description: as §1, §2

pigweed = type: in vivo, Amaranthus retroflexus
Description: as §1, §2

bermudagrass = type: in vivo, Cynodon dactylon
Description: as §1, §2

surinam grass = type: in vivo, Brachiaria decumbens
Description: as §1, §2

dallisgrass = type: in vivo, Paspalum dilatatum
Description: as §1, §2

sandbur = type: in vivo, Cenchrus echinatus
Description: as §1, §2

Question: What does the source list for `N#Cc1cccc(Oc2ncc(Cl)cn2)c1-n1cc(C(F)(F)F)cn1` [Compound 58, 3-[(5-chloro-2-pyrimidinyl)oxy]-2-[4-(trifluoromethyl)-1H-pyrazol-1-yl]benzonitrile]?
Answer: Plant response rating, Guineagrass (guineagrass; 16 g ai/ha): 100; Plant response rating, Guineagrass (guineagrass; 31 g ai/ha): 100; Plant response rating, Guineagrass (guineagrass; 62 g ai/ha): 100; Plant response rating, Guineagrass (guineagrass; 125 g ai/ha): 100; Plant response rating, Guineagrass (guineagrass; 250 g ai/ha): 100; Plant response rating, Bluegrass (bluegrass; 16 g ai/ha): 50; Plant response rating, Bluegrass (bluegrass; 31 g ai/ha): 80; Plant response rating, Bluegrass (bluegrass; 62 g ai/ha): 98; Plant response rating, Bluegrass (bluegrass; 125 g ai/ha): 98; Plant response rating, Bluegrass (bluegrass; 250 g ai/ha): 100; Plant response rating, Johnsongrass (johnsongrass; 16 g ai/ha): 65; Plant response rating, Johnsongrass (johnsongrass; 31 g ai/ha): 98; Plant response rating, Johnsongrass (johnsongrass; 62 g ai/ha): 100; Plant response rating, Johnsongrass (johnsongrass; 125 g ai/ha): 100; Plant response rating, Johnsongrass (johnsongrass; 250 g ai/ha): 100; Plant response rating, Foxtail, Green (foxtail, green; 16 g ai/ha): 75; Plant response rating, Foxtail, Green (foxtail, green; 31 g ai/ha): 100; Plant response rating, Foxtail, Green (foxtail, green; 62 g ai/ha): 100; Plant response rating, Foxtail, Green (foxtail, green; 125 g ai/ha): 100; Plant response rating, Foxtail, Green (foxtail, green; 250 g ai/ha): 100; Plant response rating, Kochia (kochia; 16 g ai/ha): 98; Plant response rating, Kochia (kochia; 31 g ai/ha): 100; Plant response rating, Kochia (kochia; 62 g ai/ha): 100; Plant response rating, Kochia (kochia; 125 g ai/ha): 100; Plant response rating, Kochia (kochia; 250 g ai/ha): 100; Plant response rating, Sowthistle (sowthistle; 16 g ai/ha): 100; Plant response rating, Sowthistle (sowthistle; 31 g ai/ha): 100; Plant response rating, Sowthistle (sowthistle; 62 g ai/ha): 100; Plant response rating, Sowthistle (sowthistle; 125 g ai/ha): 100; Plant response rating, Sowthistle (sowthistle; 250 g ai/ha): 100; Plant response rating, Barnyardgrass (barnyardgrass; 16 g ai/ha): 70; Plant response rating, Barnyardgrass (barnyardgrass; 31 g ai/ha): 100; Plant response rating, Barnyardgrass (barnyardgrass; 62 g ai/ha): 100; Plant response rating, Barnyardgrass (barnyardgrass; 125 g ai/ha): 100; Plant response rating, Barnyardgrass (barnyardgrass; 250 g ai/ha): 100; Plant response rating, Chickweed (chickweed; 16 g ai/ha): 100; Plant response rating, Chickweed (chickweed; 31 g ai/ha): 100; Plant response rating, Chickweed (chickweed; 62 g ai/ha): 100; Plant response rating, Chickweed (chickweed; 125 g ai/ha): 100; Plant response rating, Chickweed (chickweed; 250 g ai/ha): 100; Plant response rating, Dayflower, VA (dayflower; 16 g ai/ha): 90; Plant response rating, Dayflower, VA (dayflower; 31 g ai/ha): 95; Plant response rating, Dayflower, VA (dayflower; 62 g ai/ha): 100; Plant response rating, Dayflower, VA (dayflower; 125 g ai/ha): 100; Plant response rating, Dayflower, VA (dayflower; 250 g ai/ha): 100; Plant response rating, Ryegrass, Italian (Italian ryegrass; 16 g ai/ha): 35; Plant response rating, Ryegrass, Italian (Italian ryegrass; 31 g ai/ha): 95; Plant response rating, Ryegrass, Italian (Italian ryegrass; 62 g ai/ha): 98; Plant response rating, Ryegrass, Italian (Italian ryegrass; 125 g ai/ha): 100; Plant response rating, Ryegrass, Italian (Italian ryegrass; 250 g ai/ha): 100; Plant response rating, Mustard, Black (mustard, black; 16 g ai/ha): 100; Plant response rating, Mustard, Black (mustard, black; 31 g ai/ha): 100; Plant response rating, Mustard, Black (mustard, black; 62 g ai/ha): 100; Plant response rating, Mustard, Black (mustard, black; 125 g ai/ha): 100; Plant response rating, Mustard, Black (mustard, black; 250 g ai/ha): 100; Plant response rating, Crabgrass, Naked (crabgrass, naked; 16 g ai/ha): 100; Plant response rating, Crabgrass, Naked (crabgrass, naked; 31 g ai/ha): 100; Plant response rating, Crabgrass, Naked (crabgrass, naked; 62 g ai/ha): 100; Plant response rating, Crabgrass, Naked (crabgrass, naked; 125 g ai/ha): 100; Plant response rating, Crabgrass, Naked (crabgrass, naked; 250 g ai/ha): 100; Plant response rating, Leafy Spurge (leafy spurge; 16 g ai/ha): 100; Plant response rating, Leafy Spurge (leafy spurge; 31 g ai/ha): 95; Plant response rating, Leafy Spurge (leafy spurge; 62 g ai/ha): 100; Plant response rating, Leafy Spurge (leafy spurge; 125 g ai/ha): 100; Plant response rating, Leafy Spurge (leafy spurge; 250 g ai/ha): 100; Plant response rating, Buckwheat, Wild (buckwheat, wild; 16 g ai/ha): 90; Plant response rating, Buckwheat, Wild (buckwheat, wild; 31 g ai/ha): 100; Plant response rating, Buckwheat, Wild (buckwheat, wild; 62 g ai/ha): 100; Plant response rating, Buckwheat, Wild (buckwheat, wild; 125 g ai/ha): 100; Plant response rating, Buckwheat, Wild (buckwheat, wild; 250 g ai/ha): 100; Plant response rating, Signalgrass (signalgrass; 16 g ai/ha): 95; Plant response rating, Signalgrass (signalgrass; 31 g ai/ha): 100; Plant response rating, Signalgrass (signalgrass; 62 g ai/ha): 100; Plant response rating, Signalgrass (signalgrass; 125 g ai/ha): 100; Plant response rating, Signalgrass (signalgrass; 250 g ai/ha): 100; Plant response rating, Pigweed (pigweed; 16 g ai/ha): 100; Plant response rating, Pigweed (pigweed; 31 g ai/ha): 100; Plant response rating, Pigweed (pigweed; 62 g ai/ha): 100; Plant response rating, Pigweed (pigweed; 125 g ai/ha): 100; Plant response rating, Pigweed (pigweed; 250 g ai/ha): 100; Plant response rating, Bermudagrass (bermudagrass; 16 g ai/ha): 95; Plant response rating, Bermudagrass (bermudagrass; 31 g ai/ha): 100; Plant response rating, Bermudagrass (bermudagrass; 62 g ai/ha): 100; Plant response rating, Bermudagrass (bermudagrass; 125 g ai/ha): 100; Plant response rating, Bermudagrass (bermudagrass; 250 g ai/ha): 100; Plant response rating, Surinam Grass (surinam grass; 16 g ai/ha): 25; Plant response rating, Surinam Grass (surinam grass; 31 g ai/ha): 60; Plant response rating, Surinam Grass (surinam grass; 62 g ai/ha): 98; Plant response rating, Surinam Grass (surinam grass; 125 g ai/ha): 100; Plant response rating, Surinam Grass (surinam grass; 250 g ai/ha): 100; Plant response rating, Dallisgrass (dallisgrass; 16 g ai/ha): 90; Plant response rating, Dallisgrass (dallisgrass; 31 g ai/ha): 100; Plant response rating, Dallisgrass (dallisgrass; 62 g ai/ha): 100; Plant response rating, Dallisgrass (dallisgrass; 125 g ai/ha): 100; Plant response rating, Dallisgrass (dallisgrass; 250 g ai/ha): 100; Plant response rating, Sandbur (sandbur; 16 g ai/ha): 10; Plant response rating, Sandbur (sandbur; 31 g ai/ha): 35; Plant response rating, Sandbur (sandbur; 62 g ai/ha): 95; Plant response rating, Sandbur (sandbur; 125 g ai/ha): 100; Plant response rating, Sandbur (sandbur; 250 g ai/ha): 100
